The supplement of paper PMC8617591

Assays:
[1] = tested on: Mycobacterium tuberculosis Erdman (autoluminescent); experiment: total FIC50 (Loewe) at 50% inhibition, three-drug combination (log2); higher = more antagonistic
Protocol: (§1)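 DiaMOND equipotent three-drug combination dose responses (10 doses, 1.5- or 2-fold spacing, centred on IC90) against autoluminescent M. tuberculosis Erdman in 8 in vitro models. Read-out is OD600, or luminescence for the intracellular and dormancy models, normalised to untreated wells. Hill-fit Einf, AUC25 and GRinf are potency metrics; FIC50 and FIC90 are total Loewe fractional inhibitory concentrations as log2 (negative = synergy).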

[2] = tested on: Mycobacterium tuberculosis Erdman (autoluminescent); experiment: total FIC90 (Loewe) at 90% inhibition, three-drug combination (log2); higher = more antagonistic
Protocol: as §1

[3] = tested on: Mycobacterium tuberculosis Erdman (autoluminescent); experiment: Einf, fitted maximum growth inhibition of three-drug combination (fraction); higher = stronger maximal inhibition
Protocol: as §1

[4] = tested on: Mycobacterium tuberculosis Erdman (autoluminescent); experiment: AUC25, normalised area under dose response up to IC25 (three-drug combination) (fraction (0-1)); higher = more potent at low dose
Protocol: as §1

[5] = tested on: Mycobacterium tuberculosis Erdman (autoluminescent); experiment: GRinf, maximum normalised growth rate inhibition (three-drug combination) (unitless (-1 to 1)); higher = less effect (negative = killing)
Protocol: as §1

CC[C@@H](CO)NCCN[C@@H](CC)CO [ethambutol] + CC(=O)NC[C@H]1CN(c2ccc(N3CCOCC3)c(F)c2)C(=O)O1 [linezolid] + CO[C@H]1/C=C/O[C@@]2(C)Oc3c(C)c(O)c4c(O)c(c(/C=N/N5CCN(C6CCCC6)CC5)c(O)c4c3C2=O)NC(=O)/C(C)=C\C=C\[C@H](C)[C@H](O)[C@@H](C)[C@@H](O)[C@@H](C)[C@H](OC(C)=O)[C@@H]1C [rifapentine]
Conditions | AUC25, [4] | Einf, [3] | GRinf, [5] | total FIC50, [1] | total FIC90, [2]
in vitro model: acidic pH 5.7, time point: constant (~7 days, model-specific) | 0.0936 | 0.872 | -0.0867 | 0.452 | –
in vitro model: acidic pH 5.7, time point: terminal (~4-5 doublings, model-specific) | 0.0542 | 0.967 | -0.0664 | 1.01 | 0.595
in vitro model: intracellular J774, time point: constant = terminal | – | 0.962 | -0.261 | – | -1.64

Conditions | AUC25, [4] | Einf, [3] | GRinf, [5] | total FIC50, [1] | total FIC90, [2]
in vitro model: butyrate, time point: constant (~7 days, model-specific) | 0.0551 | 0.886 | 0.0937 | 0.371 | –
in vitro model: butyrate, time point: terminal (~4-5 doublings, model-specific) | 0.0436 | 0.94 | 0.0645 | 0.251 | -0.559
in vitro model: cholesterol 0.05 mM, time point: constant (~7 days, model-specific) | 0.146 | 0.726 | -0.109 | -0.662 | –
in vitro model: cholesterol 0.05 mM, time point: terminal (~4-5 doublings, model-specific) | 0.154 | 0.936 | -0.279 | -1.58 | –
in vitro model: cholesterol-high 0.2 mM, time point: constant (~7 days, model-specific) | 0.102 | 0.996 | -0.732 | 0.505 | –
in vitro model: cholesterol-high 0.2 mM, time point: terminal (~4-5 doublings, model-specific) | 0.103 | 1 | -0.843 | 0.495 | 1.02
in vitro model: dormancy (butyrate + nitrate, low O2), time point: constant (~7 days, model-specific) | 0.124 | 0.869 | 0.279 | 0.075 | –
in vitro model: dormancy (butyrate + nitrate, low O2), time point: terminal (~4-5 doublings, model-specific) | 0.131 | 0.996 | -0.349 | -0.164 | 1.09
in vitro model: standard 7H9 glycerol, time point: constant = terminal | 0.0503 | 0.887 | 0.155 | 0.486 | –
in vitro model: valerate, time point: constant (~7 days, model-specific) | 0.0575 | 0.828 | 0.0988 | 0.319 | –
in vitro model: valerate, time point: terminal (~4-5 doublings, model-specific) | 0.0307 | 0.917 | 0.0733 | 0.429 | –

CC[C@@H](CO)NCCN[C@@H](CC)CO [ethambutol] + CC(=O)NC[C@H]1CN(c2ccc(N3CCOCC3)c(F)c2)C(=O)O1 [linezolid] + CO[C@H]1/C=C/O[C@@]2(C)Oc3c(C)c(O)c4c(O)c(c(/C=N/N5CCN(C)CC5)c(O)c4c3C2=O)NC(=O)/C(C)=C\C=C\[C@H](C)[C@H](O)[C@@H](C)[C@@H](O)[C@@H](C)[C@H](OC(C)=O)[C@@H]1C [rifampicin]
Conditions | AUC25, [4] | Einf, [3] | GRinf, [5] | total FIC50, [1] | total FIC90, [2]
in vitro model: acidic pH 5.7, time point: constant (~7 days, model-specific) | 0.107 | 0.895 | -0.171 | 0.267 | –
in vitro model: acidic pH 5.7, time point: terminal (~4-5 doublings, model-specific) | 0.0468 | 0.972 | -0.121 | 0.894 | 0.219
in vitro model: intracellular J774, time point: constant = terminal | – | 0.96 | -0.326 | – | -2.16

Conditions | AUC25, [4] | Einf, [3] | GRinf, [5] | total FIC50, [1] | total FIC90, [2]
in vitro model: butyrate, time point: constant (~7 days, model-specific) | 0.0696 | 0.907 | 0.0409 | 0.215 | –
in vitro model: butyrate, time point: terminal (~4-5 doublings, model-specific) | 0.0538 | 0.952 | 0.0366 | 0.088 | -0.801
in vitro model: cholesterol 0.05 mM, time point: constant (~7 days, model-specific) | 0.163 | 0.704 | -0.271 | -0.838 | –
in vitro model: cholesterol 0.05 mM, time point: terminal (~4-5 doublings, model-specific) | 0.142 | 0.945 | -0.414 | -1.2 | –
in vitro model: cholesterol-high 0.2 mM, time point: constant (~7 days, model-specific) | 0.0878 | 0.971 | -0.549 | 0.326 | –
in vitro model: cholesterol-high 0.2 mM, time point: terminal (~4-5 doublings, model-specific) | 0.0943 | 1 | -0.743 | 0.388 | 0.577
in vitro model: dormancy (butyrate + nitrate, low O2), time point: constant (~7 days, model-specific) | 0.086 | 0.805 | 0.521 | 0.204 | –
in vitro model: dormancy (butyrate + nitrate, low O2), time point: terminal (~4-5 doublings, model-specific) | 0.0341 | 0.979 | -0.0529 | 0.514 | -0.712
in vitro model: standard 7H9 glycerol, time point: constant = terminal | 0.0613 | 0.9 | 0.107 | 0.293 | –
in vitro model: valerate, time point: constant (~7 days, model-specific) | 0.0592 | 0.858 | 0.0331 | 0.437 | –
in vitro model: valerate, time point: terminal (~4-5 doublings, model-specific) | 0.0352 | 0.921 | 0.0654 | 0.622 | -0.279
